# Experiments:
# ICR mice [1] = experiment: Effective dose and lethal dose of intravenous administration in mice; format: in vivo
# Procedure: ICR mice (males, 18-25 g) were randomly grouped and were fast given a single bolus of different doses of test drug via the tail vein, and the lowest dose causing the righting reflex to disappear (effective dose) and the dose causing animal death (lethal dose) were recorded, and the treatment windows (lethal dose/effective dose) were calculated.
# [2] = background statement; cited from earlier work
# ICR mice [3] = experiment: Disappearance of righting reflex in mice induced by drugs (single i.v. bolus); format: in vivo; settings: 100 mg/kg single bolus via tail vein, male ICR mice
# Procedure: After ICR mice (male, 18-25 g) were fast injected with the same dose (100 mg/kg) of the test drug in a single bolus via the tail vein, the incubation period and the duration of disappearance of the righting reflex in mice were recorded. Wherein, the incubation period refers to the time from the start of administration to the disappearance of the animal's righting reflex, and the duration refers to the time from the disappearance of the righting reflex to the recovery.
# mice [4] = experiment: Single i.v. administration: autonomous activity of mice; format: in vivo
# Procedure: Animals in each group were tested for their autonomous activities, each mouse for 10 minutes. After that, the animals in each group were given a single corresponding drug solution by the tail vein injection (i.v.) according to the corresponding group, 0.1 ml per 10 g body weight, and the autonomous activity of the mice was measured immediately after the administration, and the recording time was 50 min. Data were expressed as mean±standard deviation. Wherein, the dosage of propofol was 20 mg/kg.
# mice [5] = experiment: Multiple (10 times) i.v. administrations: autonomous activity of mice; format: in vivo
# Procedure: Animals in each group were given the corresponding drug solution multiple times by the tail vein injection (i.v.) in accordance with the corresponding group, 0.1 ml per mouse each time, for ten times of consecutive injections (the administration group mice were injected when the righting reflex was recovered). Then the autonomous activity of mice was measured immediately and the recording time was 50 minutes. Data were expressed as mean±standard deviation.
# mice [6] = experiment: Multiple (9 times) i.v. administrations: duration of disappearance of righting reflex in mice; format: in vivo
# Procedure: Animals in each group were given the corresponding drug solution multiple times by the tail vein injection (i.v.) in accordance with the corresponding group, 0.1 ml per mouse each time, for 9 times of consecutive injections (the administration group mice were injected when the righting reflex was recovered). The durations of each disappearance of righting reflex were recorded, and the data was expressed as an average.
# [7] = single bolus via tail vein, male ICR mice
# [8] = 50 mg/kg i.v., administration 1
# [9] = 50 mg/kg i.v., administration 2
# [10] = 50 mg/kg i.v., administration 3
# [11] = 50 mg/kg i.v., administration 4
# [12] = 50 mg/kg i.v., administration 5
# [13] = 50 mg/kg i.v., administration 6
# [14] = 50 mg/kg i.v., administration 7
# [15] = 50 mg/kg i.v., administration 8
# [16] = 50 mg/kg i.v., administration 9
# [17] = 75 mg/kg i.v., administration 1
# [18] = 75 mg/kg i.v., administration 2
# [19] = 75 mg/kg i.v., administration 3
# [20] = 75 mg/kg i.v., administration 4
# [21] = 75 mg/kg i.v., administration 5
# [22] = 75 mg/kg i.v., administration 6
# [23] = 75 mg/kg i.v., administration 7
# [24] = 75 mg/kg i.v., administration 8
# [25] = 75 mg/kg i.v., administration 9
# [26] = 100 mg/kg i.v., administration 1
# [27] = 100 mg/kg i.v., administration 2
# [28] = 100 mg/kg i.v., administration 3
# [29] = 100 mg/kg i.v., administration 4
# [30] = 100 mg/kg i.v., administration 5
# [31] = 100 mg/kg i.v., administration 6
# [32] = 100 mg/kg i.v., administration 7
# [33] = 100 mg/kg i.v., administration 8
# [34] = 100 mg/kg i.v., administration 9
structure (smiles),measurement,setting,value
"COC(=O)CC[C@@H]1N=C(c2ccccn2)c2cc(Br)ccc2-n2c(C)cnc21.O=S(=O)(O)c1ccccc1 [Remimazolam (besylate), Remimazolam, reference compound]",Effective dose (lowest dose causing the righting reflex to disappear),ICR mice [1]; [7],60 mg/kg
same,Lethal dose (dose causing animal death),ICR mice [1]; [7],280 mg/kg
same,Treatment window (lethal dose/effective dose),ICR mice [1]; [7],4.6
same,side effects in preclinical animal experiments,[2],"limb jitters, head tilting, opisthotonus"
same,Duration (time from disappearance of righting reflex to recovery),ICR mice [3],10.61 min
same,Incubation period (time from start of administration to disappearance of righting reflex),ICR mice [3],0.64 min
COC(=O)CC[C@@H]1N=C(c2ccccn2)c2cc(F)c(C)cc2-n2c(C)cnc21.Cc1ccc(S(=O)(=O)O)cc1 [Compound 1-2],minimal effective dose,"ICR mice [1]; Mus musculus, iv, single bolus via tail vein, male ICR mice, read-out: Effective dose (lowest dose causing the righting reflex to disappear)",40 mg/kg
same,"effective dose reduced, compared to remimazolam (p-toluenesulfonate)","ICR mice [1]; mice, i.v.",33.3%
same,"lethal dose increased, compared to remimazolam (p-toluenesulfonate)","ICR mice [1]; mice, i.v.",64%
same,"treatment window increased, compared to remimazolam (p-toluenesulfonate)","ICR mice [1]; mice, i.v.",2.5 times
same,Lethal dose (dose causing animal death),ICR mice [1]; [7],360 mg/kg
same,Treatment window (lethal dose/effective dose),ICR mice [1]; [7],9
same,time after administration until autonomous activity returned to normal level,mice [4]; single i.v. 50 mg/kg (low-dose group),15 min
same,total distance of autonomous activity compared with blank group,"mice [4]; single i.v. 50 mg/kg-100 mg/kg, within 10 minutes of injection",significantly lower than that of the blank group
same,time after administration until autonomous activity returned to normal level,mice [4]; single i.v. 75 mg/kg (medium-dose group),35 min
same,autonomous activity compared with blank group,"mice [4]; single i.v. 100 mg/kg (high-dose group), 50 min test period",consistently lower than that of the blank group during the test period
same,time after administration until autonomous activity returned to normal levels,"mice [5]; 10 consecutive i.v. injections, 50 mg/kg",15 to 20 min
same,return of autonomous activity to normal levels,"mice [5]; 10 consecutive i.v. injections, 100 mg/kg, test period 50 minutes",did not return to normal levels during the test period
same,recovery of the number of autonomous activities and the rest time after multiple administrations,"mice [5]; multiple i.v. administrations, vs propofol",better than that of propofol
same,Percentage of extension of righting reflex disappearance,mice [6]; [8],100%
same,righting reflex disappearance time,mice [6]; [8],2.5 min
same,Percentage of extension of righting reflex disappearance,mice [6]; [9],179%
same,righting reflex disappearance time,mice [6]; [9],4.4 min
same,Percentage of extension of righting reflex disappearance,mice [6]; [10],192%
same,righting reflex disappearance time,mice [6]; [10],4.8 min
same,Percentage of extension of righting reflex disappearance,mice [6]; [11],227%
same,righting reflex disappearance time,mice [6]; [11],5.6 min
same,Percentage of extension of righting reflex disappearance,mice [6]; [12],237%
same,righting reflex disappearance time,mice [6]; [12],5.9 min
same,Percentage of extension of righting reflex disappearance,mice [6]; [13],208%
same,righting reflex disappearance time,mice [6]; [13],5.2 min
same,Percentage of extension of righting reflex disappearance,mice [6]; [14],268%
same,righting reflex disappearance time,mice [6]; [14],6.6 min
same,Percentage of extension of righting reflex disappearance,mice [6]; [15],260%
same,righting reflex disappearance time,mice [6]; [15],6.5 min
same,Percentage of extension of righting reflex disappearance,mice [6]; [16],268%
same,righting reflex disappearance time,mice [6]; [16],6.6 min
same,disappearance time of righting reflex as share of that of the propofol group,"mice [6]; 75 mg/kg dose group, after 6-7 administrations, vs propofol 20 mg/kg",65-70%
same,Percentage of extension of righting reflex disappearance,mice [6]; [17],100%
same,righting reflex disappearance time,mice [6]; [17],5.3 min
same,Percentage of extension of righting reflex disappearance,mice [6]; [18],128%
same,righting reflex disappearance time,mice [6]; [18],6.7 min
same,Percentage of extension of righting reflex disappearance,mice [6]; [19],159%
same,righting reflex disappearance time,mice [6]; [19],8.4 min
same,Percentage of extension of righting reflex disappearance,mice [6]; [20],173%
same,righting reflex disappearance time,mice [6]; [20],9.1 min
same,Percentage of extension of righting reflex disappearance,mice [6]; [21],194%
same,righting reflex disappearance time,mice [6]; [21],10.2 min
same,Percentage of extension of righting reflex disappearance,mice [6]; [22],219%
same,righting reflex disappearance time,mice [6]; [22],11.5 min
same,Percentage of extension of righting reflex disappearance,mice [6]; [23],231%
same,righting reflex disappearance time,mice [6]; [23],12.1 min
same,Percentage of extension of righting reflex disappearance,mice [6]; [24],211%
same,righting reflex disappearance time,mice [6]; [24],11.1 min
same,Percentage of extension of righting reflex disappearance,mice [6]; [25],211%
same,righting reflex disappearance time,mice [6]; [25],11.1 min
same,Percentage of extension of righting reflex disappearance,mice [6]; [26],100%
same,righting reflex disappearance time,mice [6]; [26],8.9 min
same,Percentage of extension of righting reflex disappearance,mice [6]; [27],121%
same,righting reflex disappearance time,mice [6]; [27],10.8 min
same,Percentage of extension of righting reflex disappearance,mice [6]; [28],154%
same,righting reflex disappearance time,mice [6]; [28],13.8 min
same,Percentage of extension of righting reflex disappearance,mice [6]; [29],177%
same,righting reflex disappearance time,mice [6]; [29],15.8 min
same,Percentage of extension of righting reflex disappearance,mice [6]; [30],181%
same,righting reflex disappearance time,mice [6]; [30],16.2 min
same,Percentage of extension of righting reflex disappearance,mice [6]; [31],240%
same,righting reflex disappearance time,mice [6]; [31],21.5 min
same,Percentage of extension of righting reflex disappearance,mice [6]; [32],234%
same,righting reflex disappearance time,mice [6]; [32],20.9 min
same,Percentage of extension of righting reflex disappearance,mice [6]; [33],238%
same,righting reflex disappearance time,mice [6]; [33],21.2 min
same,Percentage of extension of righting reflex disappearance,mice [6]; [34],236%
same,righting reflex disappearance time,mice [6]; [34],21.1 min
same,accumulation effect (prolonged rate of righting reflex disappearance time after multiple administrations),mice [6]; each dose group vs propofol group,lower than that of propofol
same,dose dependence of duration of righting reflex disappearance,"mice [6]; i.v., 50-100 mg/kg",dose-dependent
same,number of consecutive administrations after which duration of righting reflex disappearance reached steady state,"mice [6]; repeated i.v. administration, each dose group",5-6
same,Duration (time from disappearance of righting reflex to recovery),ICR mice [3],6.02 min
same,Incubation period (time from start of administration to disappearance of righting reflex),ICR mice [3],0.52 min
"COC(=O)CC[C@@H]1N=C(c2ccccn2)c2cc(Br)ccc2-n2c(C)cnc21.Cc1ccc(S(=O)(=O)O)cc1 [Remimazolam (p-toluenesulfonate), Remimazolam, reference compound]",Effective dose (lowest dose causing the righting reflex to disappear),ICR mice [1]; [7],60 mg/kg
same,Lethal dose (dose causing animal death),ICR mice [1]; [7],220 mg/kg
same,Treatment window (lethal dose/effective dose),ICR mice [1]; [7],3.6
same,side effects in preclinical animal experiments,[2],"limb jitters, head tilting, opisthotonus"
same,Duration (time from disappearance of righting reflex to recovery),ICR mice [3],9.43 min
same,Incubation period (time from start of administration to disappearance of righting reflex),ICR mice [3],0.73 min

# Source: US11919905B2, “Substituted benzo[f]imidazo[1,2-a][1,4]diazepines as anesthetics” (HANGZHOU ADAMERCK PHARMLABS INC., priority 2017, dated 2024)
